Assay results as given in ChEMBL document CHEMBL1121676, “1980 Award in Medicinal Chemistry: Medicinal chemistry and dynamic structure-activity analysis in the discovery of drugs acting at histamine H2 receptors” (1981).
Active and inactive are the calls of the source. The calls are words filed in the database; no cut-off is given here.

test system: Rattus norvegicus; test: Tested for inhibition of histamine-stimulated gastric acid secretion in the lumen-perfused anesthetized rat expressed as intravenous dose which reduces a near maximal secretion to 50%; assay type: functional; settings: Stomach, read-out: ID50 (the source's name)

Compound | ED50
N=C(N)NCCCc1c[nH]cn1 | 100 µmol/kg
N=C(N)SCCc1c[nH]cn1 [IMETIT] | 200 µmol/kg
CC(=N)NCCCc1c[nH]cn1 | 100 µmol/kg
N=C(N)NCCc1c[nH]cn1 | > 500 µmol/kg
CSC(=N)NCCCc1c[nH]cn1 | 100 µmol/kg

test system: Rattus norvegicus; test: Tested for inhibition of histamine-stimulated gastric acid secretion in the lumen-perfused anesthetized rat expressed as intravenous dose which reduces a near maximal secretion to 50%; detectable; assay type: functional, organism-based; settings: Stomach

Compound | ID50
CSC(=N)NCCc1c[nH]cn1 | detectable
CC(=N)NCCc1c[nH]cn1 | detectable
N=C(N)SCCCc1c[nH]cn1 | inactive
